Laboratory results taken from patent US20230111310A1, “CARBOXYLIC ACID DERIVATIVE-SUBSTITUTED IMINO ARYL COMPOUND, PREPARATION METHOD THEREFOR, HERBICIDAL COMPOSITION AND USE THEREOF” (Qingdao Kingagroot Chemical Compound Co., Ltd., priority 2020, published 2023).

How the values were obtained:
Test in all cases: Weeding effect in post-emergence stage
Assay type in all cases: in vivo
Digitaria sanguinalis = conditions: for Weeding effect in post-emergence stage, Digitaria sanguinalis (level): fresh weight control rate level; for Weeding effect in post-emergence stage, Digitaria sanguinalis: level of fresh weight growth control rate
Procedure, shortened: (§1)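 Seeds are sown in soil-filled pots under 0.5-2 cm soil and grown 2 weeks in greenhouse. Plants at 2-3 leaves are sprayed with compound (acetone, Tween 80, 1.5 liter/ha methyl oleate EC, water) at 7.5 to 500 g/ha. Damage is rated 3 weeks later, averaging three repeats.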

Eleusine indica = conditions: for Weeding effect in post-emergence stage, Eleusine indica (level): fresh weight control rate level; for Weeding effect in post-emergence stage, Eleusine indica: level of fresh weight growth control rate
Procedure, shortened: as §1

Setaria viridis = conditions: for Weeding effect in post-emergence stage, Setaria viridis (level): fresh weight control rate level; for Weeding effect in post-emergence stage, Setaria viridis: level of fresh weight growth control rate
Procedure, shortened: as §1

Alopecurus japonicus = conditions: for Weeding effect in post-emergence stage, Alopecurus japonicus (level): fresh weight control rate level; for Weeding effect in post-emergence stage, Alopecurus japonicus: level of fresh weight growth control rate
Procedure, shortened: as §1

Abutilon theophrasti = conditions: for Weeding effect in post-emergence stage, Abutilon theophrasti (level): fresh weight control rate level; for Weeding effect in post-emergence stage, Abutilon theophrasti: level of fresh weight growth control rate
Procedure, shortened: as §1

Echinochloa crusgalli = conditions: for Weeding effect in post-emergence stage, Echinochloa crusgalli (level): fresh weight control rate level; for Weeding effect in post-emergence stage, Echinochloa crusgalli: level of fresh weight growth control rate
Procedure, shortened: as §1

Question: Which results are given for `CC(O/N=C/c1cc(-n2c(=O)n(C)c(=S)n(C)c2=O)c(F)cc1Cl)C(=O)O` (stereo not drawn) [Compound 438]?
Answer: Weeding effect in post-emergence stage, Digitaria sanguinalis (level) (Digitaria sanguinalis; Dose 30 g/ha): 5 (Level 5: growth control rate is above 85%); Weeding effect in post-emergence stage, Eleusine indica (level) (Eleusine indica; Dose 30 g/ha): 5 (Level 5: growth control rate is above 85%); Weeding effect in post-emergence stage, Setaria viridis (level) (Setaria viridis; Dose 30 g/ha): 5 (Level 5: growth control rate is above 85%); Weeding effect in post-emergence stage, Alopecurus japonicus (level) (Alopecurus japonicus; Dose 30 g/ha): 5 (Level 5: growth control rate is above 85%); Weeding effect in post-emergence stage, Abutilon theophrasti (level) (Abutilon theophrasti; Dose 30 g/ha): 5 (Level 5: growth control rate is above 85%); Weeding effect in post-emergence stage, Echinochloa crusgalli (level) (Echinochloa crusgalli; Dose 30 g/ha): 5 (Level 5: growth control rate is above 85%)

Question: What does the source list for `C[C@@H](O/N=C/c1cc(-n2c(=O)n(C)c(=S)n(C)c2=O)c(F)cc1Cl)C(=O)OCC(F)(F)F` [439(R)]?
Answer: Weeding effect in post-emergence stage, Digitaria sanguinalis (level) (Digitaria sanguinalis; Dose 30 g/ha): 5 (Level 5: growth control rate is above 85%); Weeding effect in post-emergence stage, Eleusine indica (level) (Eleusine indica; Dose 30 g/ha): 5 (Level 5: growth control rate is above 85%); Weeding effect in post-emergence stage, Setaria viridis (level) (Setaria viridis; Dose 30 g/ha): 5 (Level 5: growth control rate is above 85%); Weeding effect in post-emergence stage, Alopecurus japonicus (level) (Alopecurus japonicus; Dose 30 g/ha): 5 (Level 5: growth control rate is above 85%); Weeding effect in post-emergence stage, Abutilon theophrasti (level) (Abutilon theophrasti; Dose 30 g/ha): 5 (Level 5: growth control rate is above 85%); Weeding effect in post-emergence stage, Echinochloa crusgalli (level) (Echinochloa crusgalli; Dose 30 g/ha): 5 (Level 5: growth control rate is above 85%)

Question: How did the “Weeding effect in post-emergence stage, Digitaria sanguinalis” value (Digitaria sanguinalis; Dose 15 g/ha) turn out when `C[C@@H](O/N=C/c1cc(-n2c(=O)cc(C(F)(F)F)n(C)c2=O)c(F)cc1Cl)C(=O)OCc1ccccc1F` [284(R)] was run?
Answer: 5 (Level 5: growth control rate is above 85%)

Question: What about the “Weeding effect in post-emergence stage, Eleusine indica” value (Eleusine indica; Dose 15 g/ha) of the same compound?
Answer: 5 (Level 5: growth control rate is above 85%)

Question: And the “Weeding effect in post-emergence stage, Setaria viridis” value (Setaria viridis; Dose 15 g/ha)?
Answer: 5 (Level 5: growth control rate is above 85%)

Question: And the “Weeding effect in post-emergence stage, Alopecurus japonicus” value (Alopecurus japonicus; Dose 15 g/ha)?
Answer: 5 (Level 5: growth control rate is above 85%)

Question: What about the “Weeding effect in post-emergence stage, Abutilon theophrasti” value (Abutilon theophrasti; Dose 15 g/ha) of the same compound?
Answer: 5 (Level 5: growth control rate is above 85%)

Question: What about the “Weeding effect in post-emergence stage, Echinochloa crusgalli” value (Echinochloa crusgalli; Dose 15 g/ha) of the same compound?
Answer: 5 (Level 5: growth control rate is above 85%)

Question: `CC(C)=NOCCOC(=O)[C@@H](C)O/N=C/c1cc(-n2c(=O)cc(C(F)(F)F)n(C)c2=O)c(F)cc1Cl` [259(R)] was tested. Which “Weeding effect in post-emergence stage, Digitaria sanguinalis” value (Digitaria sanguinalis; Dose 30 g/ha) did it give?
Answer: 5 (Level 5: growth control rate is above 85%)

Question: And the “Weeding effect in post-emergence stage, Eleusine indica” value (Eleusine indica; Dose 30 g/ha)?
Answer: 5 (Level 5: growth control rate is above 85%)

Question: What about the “Weeding effect in post-emergence stage, Setaria viridis” value (Setaria viridis; Dose 30 g/ha) of the same compound?
Answer: 5 (Level 5: growth control rate is above 85%)

Question: And the “Weeding effect in post-emergence stage, Alopecurus japonicus” value (Alopecurus japonicus; Dose 30 g/ha)?
Answer: 5 (Level 5: growth control rate is above 85%)

Question: What about the “Weeding effect in post-emergence stage, Abutilon theophrasti” value (Abutilon theophrasti; Dose 30 g/ha) of the same compound?
Answer: 5 (Level 5: growth control rate is above 85%)

Question: What about the “Weeding effect in post-emergence stage, Echinochloa crusgalli” value (Echinochloa crusgalli; Dose 30 g/ha) of the same compound?
Answer: 5 (Level 5: growth control rate is above 85%)

Question: `CCOC(=O)/C(C)=N/OC(=O)C(C)O/N=C/c1cc(-n2c(=O)cc(C(F)(F)F)n(C)c2=O)c(F)cc1Cl` (stereo not drawn) [Compound 254] was tested. Which “Weeding effect in post-emergence stage, Digitaria sanguinalis” value (Digitaria sanguinalis; Dose 15 g/ha) did it give?
Answer: 5 (Level 5: growth control rate is above 85%)

Question: What about the “Weeding effect in post-emergence stage, Eleusine indica” value (Eleusine indica; Dose 15 g/ha) of the same compound?
Answer: 5 (Level 5: growth control rate is above 85%)

Question: And the “Weeding effect in post-emergence stage, Setaria viridis” value (Setaria viridis; Dose 15 g/ha)?
Answer: 5 (Level 5: growth control rate is above 85%)

Question: What about the “Weeding effect in post-emergence stage, Alopecurus japonicus” value (Alopecurus japonicus; Dose 15 g/ha) of the same compound?
Answer: 5 (Level 5: growth control rate is above 85%)

Question: And the “Weeding effect in post-emergence stage, Abutilon theophrasti” value (Abutilon theophrasti; Dose 15 g/ha)?
Answer: 5 (Level 5: growth control rate is above 85%)

Question: And the “Weeding effect in post-emergence stage, Echinochloa crusgalli” value (Echinochloa crusgalli; Dose 15 g/ha)?
Answer: 5 (Level 5: growth control rate is above 85%)

Question: For `CC(O/N=C/c1cc(-n2c(=O)n(C)c(=S)n(C)c2=O)c(F)cc1Cl)C(=O)OCCCC(F)(F)F` (racemic) [Compound 12], which “Weeding effect in post-emergence stage, Digitaria sanguinalis” value (Digitaria sanguinalis; Dose 15 g/ha) is on record?
Answer: 5 (Level 5: growth control rate is above 85%)

Question: What about the “Weeding effect in post-emergence stage, Eleusine indica” value (Eleusine indica; Dose 15 g/ha) of the same compound?
Answer: 5 (Level 5: growth control rate is above 85%)

Question: What about the “Weeding effect in post-emergence stage, Setaria viridis” value (Setaria viridis; Dose 15 g/ha) of the same compound?
Answer: 5 (Level 5: growth control rate is above 85%)

Question: What about the “Weeding effect in post-emergence stage, Alopecurus japonicus” value (Alopecurus japonicus; Dose 15 g/ha) of the same compound?
Answer: 5 (Level 5: growth control rate is above 85%)

Question: And the “Weeding effect in post-emergence stage, Abutilon theophrasti” value (Abutilon theophrasti; Dose 15 g/ha)?
Answer: 5 (Level 5: growth control rate is above 85%)

Question: What about the “Weeding effect in post-emergence stage, Echinochloa crusgalli” value (Echinochloa crusgalli; Dose 15 g/ha) of the same compound?
Answer: 5 (Level 5: growth control rate is above 85%)

Question: `COC(=O)C(CC(C)C)O/N=C/c1cc(-n2c(=O)cc(C(F)(F)F)n(C)c2=O)c(F)cc1Cl` (racemic) [Compound 455] was tested. Which “Weeding effect in post-emergence stage, Digitaria sanguinalis (level)” value (Digitaria sanguinalis; Dose 15 g/ha) did it give?
Answer: 5 (Level 5: growth control rate is above 85%)

Question: And the “Weeding effect in post-emergence stage, Eleusine indica (level)” value (Eleusine indica; Dose 15 g/ha)?
Answer: 5 (Level 5: growth control rate is above 85%)

Question: What about the “Weeding effect in post-emergence stage, Setaria viridis (level)” value (Setaria viridis; Dose 15 g/ha) of the same compound?
Answer: 5 (Level 5: growth control rate is above 85%)

Question: What about the “Weeding effect in post-emergence stage, Alopecurus japonicus (level)” value (Alopecurus japonicus; Dose 15 g/ha) of the same compound?
Answer: 5 (Level 5: growth control rate is above 85%)

Question: And the “Weeding effect in post-emergence stage, Abutilon theophrasti (level)” value (Abutilon theophrasti; Dose 15 g/ha)?
Answer: 5 (Level 5: growth control rate is above 85%)

Question: And the “Weeding effect in post-emergence stage, Echinochloa crusgalli (level)” value (Echinochloa crusgalli; Dose 15 g/ha)?
Answer: 5 (Level 5: growth control rate is above 85%)
